# Laboratory results taken from article PMC4346889, “Discovery of Akt Kinase Inhibitors through Structure-Based Virtual Screening and Their Evaluation as Potential Anticancer Agents” (International Journal of Molecular Sciences, 2015).
# Assays:
# [1] = system: HEK-293 normal human embryonic kidney cells; experiment: Cytotoxicity evaluation, ATPLite cell viability; type: cell-based; conditions: HEK293, 48 h, concentration required to inhibit cell growth by 50%, 2 days incubation
# Experimental: (§1) The 26 test compounds (as listed in Figure 4) were further evaluated at 100 µM for their cytotoxicity against HCT-116 human colon cancer cells and HEK-293 normal human embryonic kidney cells. […] Their chemical structures are shown in Figure S1 in the Supplementary Material.
# (§2) Compounds were evaluated at 100 µM for their cytotoxicity against HCT-116 human colon cancer cells and HEK-293 normal human embryonic kidney cells. Cells were seeded at a density of 1 × 10^4 cells/well in 96-well plates and allowed to attach overnight. Cells were then treated with test compounds or 1% DMSO (vehicle control) and incubated at 37 °C in an atmosphere of 5% CO2 for 2 days. The ATPLite kit (PerkinElmer, Waltham, MA, USA) was used for detecting the cell viability.
# [2] = system: HCT-116 human colon cancer cells; experiment: Cytotoxicity evaluation, ATPLite cell viability; type: cell-based; conditions: for IC50: Homo sapiens, HCT-116, 48 h, concentration required to inhibit cell growth by 50%, 2 days incubation; for Selectivity index: ratio of IC50 for HEK-293/IC50 for HCT-116
# Akt kinase [3] = target: T1, Akt kinase (Homo sapiens, UniProt P31749); experiment: Akt kinase inhibition assay (EKS-400A assay kit); type: biochemical
# T1 construct: purchased Enzo Life Sciences EKS-400A
# T1 sequence (P31749 whole entry): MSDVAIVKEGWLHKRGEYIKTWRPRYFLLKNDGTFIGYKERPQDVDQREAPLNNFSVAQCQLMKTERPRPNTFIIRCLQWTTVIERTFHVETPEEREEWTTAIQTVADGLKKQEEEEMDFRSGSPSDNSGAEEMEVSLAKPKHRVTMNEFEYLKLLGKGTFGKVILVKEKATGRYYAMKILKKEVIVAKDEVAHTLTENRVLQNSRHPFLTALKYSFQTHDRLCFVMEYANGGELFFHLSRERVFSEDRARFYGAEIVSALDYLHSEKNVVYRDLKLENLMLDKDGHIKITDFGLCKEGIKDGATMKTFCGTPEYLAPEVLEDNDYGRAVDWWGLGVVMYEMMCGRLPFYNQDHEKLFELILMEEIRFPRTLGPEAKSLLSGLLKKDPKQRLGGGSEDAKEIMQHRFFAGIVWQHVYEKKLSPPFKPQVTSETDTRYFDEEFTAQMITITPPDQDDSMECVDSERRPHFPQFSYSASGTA
# Experimental: The 48 selected compounds from virtual screening were assessed at 100 µM for their ability to inhibit Akt kinase activity using the EKS-400A assay kit (Enzo Life Sciences, Farmingdale, NY, USA).
# Compounds were evaluated at 100 µM for their ability to inhibit Akt kinase activity using the EKS-400A assay kit (Enzo Life Sciences). Test compounds or 1% DMSO (vehicle control) were incubated with the 8 ng pure Akt kinase in Hanks’ Balanced Salt Solution (HBSS) at 37 °C for 30 min.
# Akt kinase [4] = target: T1, Akt kinase; conditions: cited from earlier work
# [5] = system: HCT-116 human colon cancer cells; experiment: Cytotoxicity evaluation, ATPLite cell viability; type: cell-based; conditions: at 100 µM, compared with reference H-89
# Experimental: as §1, §2
IC50 (Akt kinase [3]) [µM],inhibition at 100 µM (Akt kinase [3]; at 100 µM) [%],"remaining activity at 100 µM (Akt kinase [3]; compound at 100 µM, read-out: Akt kinase residual activity) [%]",SMILES,IC50 [1] [µM],IC50 [2] [µM],Selectivity index [2],pan-Akt kinase inhibitor activity (Akt kinase [4]),cytotoxic activity against HCT-116 compared to H-89 [5]
–,–,–,"O=S(=O)(NCCNC/C=C/c1ccc(Br)cc1)c1cccc2cnccc12 [Compound H-89, H-89, reference compound]",112,78.9,–,–,–
201,–,–,Cc1nn(C)cc1-c1nnc(SCC(=O)Nc2cc(C(F)(F)F)ccc2Cl)n1-c1ccc(Cl)cc1 [Compound a46],139,11.1,12.5,–,–
–,75,< 60,Nc1ncnc2nc(SCC(=O)Nc3ccc(Br)cc3)[nH]c12 [Compound a48],153,9.5,16.1,–,–
–,–,–,CCn1c(-c2nonc2N)nc2c(C#CC(C)(C)O)ncc(OC[C@H]3CCCNC3)c21 [GSK690693],–,–,–,low nanomolar activity,–
–,–,–,Cc1cccc(Nc2nc3nonc3nc2N/N=C/c2cc3c(cc2Br)OCO3)c1C [a33],165,109,1.5,–,more potent or comparable cytotoxic activity to that of H-89
–,–,–,Cc1cccc(-c2nc3cc(/N=C/c4c(C)cc(O)c(C)c4O)ccc3o2)c1 [a44],102,50.6,2.0,–,more potent or comparable cytotoxic activity to that of H-89
